Reference: ChEMBL document CHEMBL1127408, “Anti-AIDS agents. 15. Synthesis and anti-HIV activity of dihydroseselins and related analogs” (J Med Chem, 1994)

Key:
[1] = tested on: Human immunodeficiency virus 1; test: Anti-HIV activity in acutely infected H9 lymphocytes.; format: functional, organism-based
[2] = (§1) Tested for in vitro therapeutic index as the ratio of IC50 to EC50 in acutely infected H9 Lymphocytes; format: organism-based, Human immunodeficiency virus 1; conditions: human immunodeficiency virus 1, H9 lymphocytes acutely infected with HIV-1; read-out: TI
[3] = Tested for in vitro therapeutic index as the ratio of IC50 to EC50 in acutely infected U937; format: cell-based, U-937; conditions: human, acutely infected U937 cells; read-out: TI
U-937 = test: Compound was tested for anti-HIV activity in acutely infected U937; format: functional, cell-based; conditions: Homo sapiens
[4] = Tested for in vitro therapeutic index as the ratio of IC50 to EC50 in PBMCs; conditions: human, read-out: TI
[5] = tested on: Human immunodeficiency virus 1; test: as §1; format: organism-based; conditions: Human immunodeficiency virus 1

| Compound | EC50 ([1]; Human immunodeficiency virus 1) | selectivity ratio [2] | further results |
| --- | --- | --- | --- |
| CC1(C)Oc2ccc3ccc(=O)oc3c2C(OC(=O)c2cccc(Cl)c2)C1OC1CCCCO1 (single isomer, unassigned) | 8.3 µM | 10 | – |
| CC(C)(C)CC(=O)O[C@@H]1c2c(ccc3ccc(=O)oc23)OC(C)(C)[C@@H]1OC(=O)CC(C)(C)C | 21.8 µM | 2 | – |
| CC(C)=CC(=O)OC1c2c(ccc3ccc(=O)oc23)OC(C)(C)C1OC(=O)C=C(C)C (stereo not given) | 4.7 µM | 3.5 | – |
| CC1(C)Oc2ccc3ccc(=O)oc3c2C(OC(=O)c2cccc(Cl)c2)C1O (stereo not given) | 4.2 µM | 2.4 | – |
| CC(C)CC(=O)OC1c2c(ccc3ccc(=O)oc23)OC(C)(C)C1OC(=O)CC(C)C (stereo in doubt; 9) | – | 2 | EC50 [1]: 7 µM |
| CC(=O)OC1C(N=[N+]=[N-])c2c(ccc3ccc(=O)oc23)OC1(C)C (stereo not given) | 116 µM | 1 | – |
| CC1(C)Oc2ccc3ccc(=O)oc3c2C(N=[N+]=[N-])C1O (stereo not given) | 116 µM | 2.9 | – |
| CC(=O)O[C@@H]1[C@H](OC(=O)CC(C)C)c2c(ccc3ccc(=O)oc23)OC1(C)C [SUKSDORFIN] | 2.6 µM | 30.6 | – |
| CCC(C)C(=O)OC1c2c(ccc3ccc(=O)oc23)OC(C)(C)C1OC(=O)C(C)CC (stereo not given) | 7 µM | 14.4 | – |
| CC1(C)Oc2ccc3ccc(=O)oc3c2[C@@H](OC(=O)C23CCC(C)(C(=O)O2)C3(C)C)[C@H]1OC(=O)C12CCC(C)(C(=O)O1)C2(C)C (mixture of isomers; 16) | – | – | selectivity ratio [3]: 11700; EC50 (U-937): 0.0021 µM; selectivity ratio [4]: 472; EC50 [1]: 4 µM; TI [5]: 136719 |
| C/C=C(\C)C(=O)O[C@@H]1c2c(ccc3ccc(=O)oc23)OC(C)(C)[C@@H]1OC(C)=O [PTERYXIN] | 4.6 µM | 4.5 | – |
| CC(C)(C)c1ccc(C(=O)OC2c3c(ccc4ccc(=O)oc34)OC(C)(C)C2OC(=O)c2ccc(C(C)(C)C)cc2)cc1 (stereo not given) | < 1.4 µM | > 2.2 | – |
| CC1(C)Oc2ccc3ccc(=O)oc3c2C(OC(=O)C23CCC(C)(C(=O)O2)C3(C)C)C1OC(=O)C12CCC(C)(C(=O)O1)C2(C)C (stereo in doubt; 38) | 24.1 µM | 3 | – |
| CC(=O)OC1c2c(ccc3ccc(=O)oc23)OC(C)(C)C1OCc1ccccc1 (stereo not given) | 38 µM | 2.3 | – |
| CC(C)CC(=O)OC1c2c(ccc3ccc(=O)oc23)OC(C)(C)C1OC(=O)CC(C)C (stereo in doubt; 42) | – | – | EC50 [1]: 20.9 µM; TI [5]: 3 |
| CC1(C)Oc2ccc3ccc(=O)oc3c2C(O)C1OCc1ccccc1 (stereo not given) | 43 µM | 2.7 | – |
| CC1(C)Oc2ccc3ccc(=O)oc3c2C(OC(=O)C23CCC(C)(C(=O)O2)C3(C)C)C1OC(=O)C12CCC(C)(C(=O)O1)C2(C)C (stereo in doubt; 39) | – | – | EC50 [1]: 32 µM; TI [5]: > 5 |
| CC1(C)Oc2ccc3ccc(=O)oc3c2C(OC(=O)c2cccc(Cl)c2)C1OCc1ccccc1 (stereo not given) | 3.1 µM | 5 | – |
| CC(=O)OC1c2c(ccc3ccc(=O)oc23)OC(C)(C)C1OC(C)=O (stereo in doubt; 8) | 69.4 µM | – | TI [5]: 0.4 |
| Cc1cn([C@H]2C[C@H](N=[N+]=[N-])[C@@H](CO)O2)c(=O)[nH]c1=O [ZIDOVUDINE] | 0.15 µM | 12500 | – |
| CC1(C)C=Cc2c(ccc3ccc(=O)oc23)O1 [SESALIN] | 3.5 µM | 5 | – |
| CC(C)CC(=O)OC1C(OC(=O)c2cccc(Cl)c2)c2c(ccc3ccc(=O)oc23)OC1(C)C (stereo not given) | 9.3 µM | 1.4 | – |
| COC1C(OC(=O)c2cccc(Cl)c2)c2c(ccc3ccc(=O)oc23)OC1(C)C (stereo not given) | 241 µM | 0.34 | – |
| CC1(C)Oc2ccc3ccc(=O)oc3c2[C@@H](OC(=O)C23CCC(C)(C(=O)O2)C3(C)C)[C@H]1OC(=O)C12CCC(C)(C(=O)O1)C2(C)C (mixture of isomers; 17) | – | – | EC50 [1]: 145 µM; TI [5]: 1.1 |
| CC(C)[C@H]1CC[C@H](C)C[C@@H]1OC(=O)OC1c2c(ccc3ccc(=O)oc23)OC(C)(C)C1OC(=O)O[C@@H]1C[C@H](C)CC[C@H]1C(C)C (stereo not given in full) | 11.4 µM | 2.9 | – |
| CC(=O)OC1c2c(ccc3ccc(=O)oc23)OC(C)(C)C1OC(C)=O (stereo in doubt; 37) | – | – | EC50 [1]: 43 µM; TI [5]: 3 |
